Key:
Type in all cases: in vivo
ducksalad [1] = assay: Test Example 2: herbicidal effects during the vegetation period under submerged conditions; conditions: treatment during the vegetation period under submerged conditions; dose 2.52 g/a
Procedure, shortened: (§1)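 Barnyardgrass, bulrush and ducksalad were co-sown in alluvial soil flooded to 4 cm and grown in a greenhouse at 25 to 30° C. At the 1- or 2-leaf stage, water-diluted emulsifiable concentrates went onto the water surface at set doses (g/a). Herbicidal effect was scored three weeks later on a graded scale.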

barnyardgrass [2] = assay: as above; conditions: treatment during the vegetation period under submerged conditions; dose 2.52 g/a
Procedure, shortened: as §1

bulrush [3] = assay: as above; conditions: treatment during the vegetation period under submerged conditions; dose 2.52 g/a
Procedure, shortened: as §1

common lambsquater [4] = assay: Test Example 3: herbicidal effects in soil treatment
Procedure, shortened: (§2)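 Seeds were sown in sterilized diluvial soil and covered with about 1.5 cm of soil. Compounds, formulated as emulsifiable concentrates and diluted with water, were sprayed evenly over the soil surface at set doses in g/a. Herbicidal effect was scored on a rating scale three weeks later.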

velvetleaf [5] = assay: as above
Procedure, shortened: as §2

Italian ryegrass [6] = assay: as above
Procedure, shortened: as §2

barnyardgrass [7] = assay: as above
Procedure, shortened: as §2

common chickweed [8] = assay: as above
Procedure, shortened: as §2

wild oat [9] = assay: as above
Procedure, shortened: as §2

common ragweed [10] = assay: as above
Procedure, shortened: as §2

posumbu knotweed [11] = assay: as above
Procedure, shortened: as §2

water foxtail [12] = assay: as above
Procedure, shortened: as §2

giant foxtail [13] = assay: as above
Procedure, shortened: as §2

large crabgrass [14] = assay: as above
Procedure, shortened: as §2

redroot pigweed [15] = assay: as above
Procedure, shortened: as §2

transplanted rice = assay: Test Example 1: preemergence treatment under submerged conditions, effect on crop; conditions: dose 2.52 g/a
Procedure, shortened: (§3)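 Alluvial soil flooded to 4 cm depth; barnyardgrass, bulrush and ducksalad sown and 2.5-leaf rice seedlings transplanted. Same day, water-diluted emulsifiable concentrates applied to the water surface at set doses (g/a). Kept at 25–30 °C in greenhouse; effects scored 0–5 by mortality after three weeks.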

common lambsquater [16] = assay: Test Example 4: herbicidal effect in foliage treatment; conditions: three weeks after application
Procedure, shortened: (§4)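 Post-emergence foliar spray of water-diluted emulsifiable concentrate at predetermined doses (g per are), applied to plants 14 days after sowing in sterile diluvial soil (greenhouse, 25 to 30° C). Visual scale rating of effect taken 3 weeks later.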

velvetleaf [17] = assay: as above; conditions: three weeks after application
Procedure, shortened: as §4

Italian ryegrass [18] = assay: as above; conditions: three weeks after application
Procedure, shortened: as §4

barnyardgrass [19] = assay: as above; conditions: three weeks after application
Procedure, shortened: as §4

common chickweed [20] = assay: as above; conditions: three weeks after application
Procedure, shortened: as §4

wild oat [21] = assay: as above; conditions: three weeks after application
Procedure, shortened: as §4

common ragweed [22] = assay: as above; conditions: three weeks after application
Procedure, shortened: as §4

posumbu knotweed [23] = assay: as above; conditions: three weeks after application
Procedure, shortened: as §4

water foxtail [24] = assay: as above; conditions: three weeks after application
Procedure, shortened: as §4

giant foxtail [25] = assay: as above; conditions: three weeks after application
Procedure, shortened: as §4

large crabgrass [26] = assay: as above; conditions: three weeks after application
Procedure, shortened: as §4

beadstraw = assay: as above; conditions: three weeks after application
Procedure, shortened: as §4

redroot pigweed [27] = assay: as above; conditions: three weeks after application
Procedure, shortened: as §4

ducksalad [28] = assay: Test Example 1: herbicidal effects in preemergence treatment under submerged conditions; conditions: dose 2.52 g/a
Procedure, shortened: as §3

barnyardgrass [29] = assay: as above; conditions: dose 2.52 g/a
Procedure, shortened: as §3

bulrush [30] = assay: as above; conditions: dose 2.52 g/a
Procedure, shortened: as §3

## CC1COCC(=O)N1Cc1ccccc1NS(=O)(=O)C(F)(F)F (stereo not shown) [Compound I-13]
Ducksalad [1]
  C: ducksalad, herbicidal effect (evaluation scale 0-5): 5 (mortality of 90% or above (nearly complete death))
Barnyardgrass [2]
  A: barnyardgrass, herbicidal effect (evaluation scale 0-5): 5 (mortality of 90% or above (nearly complete death))
Bulrush [3]
  B: bulrush, herbicidal effect (evaluation scale 0-5): 5 (mortality of 90% or above (nearly complete death))
Common lambsquater [4]; dose 3.2 g/a
  L: common lambsquater, herbicidal effect (evaluation scale 0-5): 5 (mortality of 90% or above (nearly complete death))
Velvetleaf [5]; dose 3.2 g/a
  I: velvetleaf, herbicidal effect (evaluation scale 0-5): 5 (mortality of 90% or above (nearly complete death))
Italian ryegrass [6]; dose 3.2 g/a
  H: Italian ryegrass, herbicidal effect (evaluation scale 0-5): 5 (mortality of 90% or above (nearly complete death))
Barnyardgrass [7]; dose 3.2 g/a
  A: barnyardgrass, herbicidal effect (evaluation scale 0-5): 5 (mortality of 90% or above (nearly complete death))
Common chickweed [8]; dose 3.2 g/a
  N: common chickweed, herbicidal effect (evaluation scale 0-5): 5 (mortality of 90% or above (nearly complete death))
Wild oat [9]; dose 3.2 g/a
  F: wild oat, herbicidal effect (evaluation scale 0-5): 3 (mortality of at least 40% and less than 70%)
Common ragweed [10]; dose 3.2 g/a
  J: common ragweed, herbicidal effect (evaluation scale 0-5): 5 (mortality of 90% or above (nearly complete death))
Posumbu knotweed [11]; dose 3.2 g/a
  M: posumbu knotweed, herbicidal effect (evaluation scale 0-5): 5 (mortality of 90% or above (nearly complete death))
Water foxtail [12]; dose 3.2 g/a
  G: water foxtail, herbicidal effect (evaluation scale 0-5): 5 (mortality of 90% or above (nearly complete death))
Giant foxtail [13]; dose 3.2 g/a
  E: giant foxtail, herbicidal effect (evaluation scale 0-5): 5 (mortality of 90% or above (nearly complete death))
Large crabgrass [14]; dose 3.2 g/a
  D: large crabgrass, herbicidal effect (evaluation scale 0-5): 5 (mortality of 90% or above (nearly complete death))
Redroot pigweed [15]; dose 3.2 g/a
  K: redroot pigweed, herbicidal effect (evaluation scale 0-5): 5 (mortality of 90% or above (nearly complete death))
Transplanted rice
  a: transplanted rice, effect on crop (evaluation scale 0-5): 1 (mortality of at least 5% and less than 20%)
Common lambsquater [16]; dose 3.2 g/a
  L: common lambsquater, herbicidal effect: 3 (mortality of at least 40% and less than 70%)
Velvetleaf [17]; dose 3.2 g/a
  I: velvetleaf, herbicidal effect: 5 (mortality of 90% or above (nearly complete death))
Italian ryegrass [18]; dose 3.2 g/a
  H: Italian ryegrass, herbicidal effect: 5 (mortality of 90% or above (nearly complete death))
Barnyardgrass [19]; dose 3.2 g/a
  A: barnyardgrass, herbicidal effect: 5 (mortality of 90% or above (nearly complete death))
Common chickweed [20]; dose 3.2 g/a
  N: common chickweed, herbicidal effect: 4 (mortality of at least 70% and less than 90%)
Wild oat [21]; dose 3.2 g/a
  F: wild oat, herbicidal effect: 0 (mortality of less than 5% (almost ineffective))
Common ragweed [22]; dose 3.2 g/a
  J: common ragweed, herbicidal effect: 4 (mortality of at least 70% and less than 90%)
Posumbu knotweed [23]; dose 3.2 g/a
  M: posumbu knotweed, herbicidal effect: 3 (mortality of at least 40% and less than 70%)
Water foxtail [24]; dose 3.2 g/a
  G: water foxtail, herbicidal effect: 5 (mortality of 90% or above (nearly complete death))
Giant foxtail [25]; dose 3.2 g/a
  E: giant foxtail, herbicidal effect: 4 (mortality of at least 70% and less than 90%)
Large crabgrass [26]; dose 3.2 g/a
  D: large crabgrass, herbicidal effect: 5 (mortality of 90% or above (nearly complete death))
beadstraw; dose 3.2 g/a
  O: beadstraw, herbicidal effect: 4 (mortality of at least 70% and less than 90%)
Redroot pigweed [27]; dose 3.2 g/a
  K: redroot pigweed, herbicidal effect: 3 (mortality of at least 40% and less than 70%)
Ducksalad [28]
  C: ducksalad, herbicidal effect (evaluation scale 0-5): 5 (mortality of 90% or above (nearly complete death))
Barnyardgrass [29]
  A: barnyardgrass, herbicidal effect (evaluation scale 0-5): 5 (mortality of 90% or above (nearly complete death))
Bulrush [30]
  B: bulrush, herbicidal effect (evaluation scale 0-5): 5 (mortality of 90% or above (nearly complete death))

## CCOC(=O)N(c1ccccc1CN1CCOCC1=O)S(=O)(=O)C(F)(F)F [Compound I-2, 4-[2-(N-ethoxycarbonyl-N-trifluoromethanesulfonyl)aminobenzyl]-1,4-oxazinan-3-one]
Ducksalad [1]
  C: ducksalad, herbicidal effect (evaluation scale 0-5): 5 (mortality of 90% or above (nearly complete death))
Barnyardgrass [2]
  A: barnyardgrass, herbicidal effect (evaluation scale 0-5): 5 (mortality of 90% or above (nearly complete death))
Bulrush [3]
  B: bulrush, herbicidal effect (evaluation scale 0-5): 5 (mortality of 90% or above (nearly complete death))
Common lambsquater [4]; dose 6.3 g/a
  L: common lambsquater, herbicidal effect (evaluation scale 0-5): 5 (mortality of 90% or above (nearly complete death))
Velvetleaf [5]; dose 6.3 g/a
  I: velvetleaf, herbicidal effect (evaluation scale 0-5): 5 (mortality of 90% or above (nearly complete death))
Italian ryegrass [6]; dose 6.3 g/a
  H: Italian ryegrass, herbicidal effect (evaluation scale 0-5): 5 (mortality of 90% or above (nearly complete death))
Barnyardgrass [7]; dose 6.3 g/a
  A: barnyardgrass, herbicidal effect (evaluation scale 0-5): 5 (mortality of 90% or above (nearly complete death))
Common chickweed [8]; dose 6.3 g/a
  N: common chickweed, herbicidal effect (evaluation scale 0-5): 5 (mortality of 90% or above (nearly complete death))
Wild oat [9]; dose 6.3 g/a
  F: wild oat, herbicidal effect (evaluation scale 0-5): 3 (mortality of at least 40% and less than 70%)
Common ragweed [10]; dose 6.3 g/a
  J: common ragweed, herbicidal effect (evaluation scale 0-5): 5 (mortality of 90% or above (nearly complete death))
Posumbu knotweed [11]; dose 6.3 g/a
  M: posumbu knotweed, herbicidal effect (evaluation scale 0-5): 5 (mortality of 90% or above (nearly complete death))
Water foxtail [12]; dose 6.3 g/a
  G: water foxtail, herbicidal effect (evaluation scale 0-5): 5 (mortality of 90% or above (nearly complete death))
Giant foxtail [13]; dose 6.3 g/a
  E: giant foxtail, herbicidal effect (evaluation scale 0-5): 5 (mortality of 90% or above (nearly complete death))
Large crabgrass [14]; dose 6.3 g/a
  D: large crabgrass, herbicidal effect (evaluation scale 0-5): 5 (mortality of 90% or above (nearly complete death))
Redroot pigweed [15]; dose 6.3 g/a
  K: redroot pigweed, herbicidal effect (evaluation scale 0-5): 5 (mortality of 90% or above (nearly complete death))
Transplanted rice
  a: transplanted rice, effect on crop (evaluation scale 0-5): 1 (mortality of at least 5% and less than 20%)
Common lambsquater [16]; dose 6.3 g/a
  L: common lambsquater, herbicidal effect: 4 (mortality of at least 70% and less than 90%)
Velvetleaf [17]; dose 6.3 g/a
  I: velvetleaf, herbicidal effect: 5 (mortality of 90% or above (nearly complete death))
Italian ryegrass [18]; dose 6.3 g/a
  H: Italian ryegrass, herbicidal effect: 4 (mortality of at least 70% and less than 90%)
Barnyardgrass [19]; dose 6.3 g/a
  A: barnyardgrass, herbicidal effect: 5 (mortality of 90% or above (nearly complete death))
Common chickweed [20]; dose 6.3 g/a
  N: common chickweed, herbicidal effect: 4 (mortality of at least 70% and less than 90%)
Wild oat [21]; dose 6.3 g/a
  F: wild oat, herbicidal effect: 3 (mortality of at least 40% and less than 70%)
Common ragweed [22]; dose 6.3 g/a
  J: common ragweed, herbicidal effect: 3 (mortality of at least 40% and less than 70%)
Posumbu knotweed [23]; dose 6.3 g/a
  M: posumbu knotweed, herbicidal effect: 4 (mortality of at least 70% and less than 90%)
Water foxtail [24]; dose 6.3 g/a
  G: water foxtail, herbicidal effect: 5 (mortality of 90% or above (nearly complete death))
Giant foxtail [25]; dose 6.3 g/a
  E: giant foxtail, herbicidal effect: 5 (mortality of 90% or above (nearly complete death))
Large crabgrass [26]; dose 6.3 g/a
  D: large crabgrass, herbicidal effect: 5 (mortality of 90% or above (nearly complete death))
beadstraw; dose 6.3 g/a
  O: beadstraw, herbicidal effect: 5 (mortality of 90% or above (nearly complete death))
Redroot pigweed [27]; dose 6.3 g/a
  K: redroot pigweed, herbicidal effect: 3 (mortality of at least 40% and less than 70%)
Ducksalad [28]
  C: ducksalad, herbicidal effect (evaluation scale 0-5): 5 (mortality of 90% or above (nearly complete death))
Barnyardgrass [29]
  A: barnyardgrass, herbicidal effect (evaluation scale 0-5): 5 (mortality of 90% or above (nearly complete death))
Bulrush [30]
  B: bulrush, herbicidal effect (evaluation scale 0-5): 5 (mortality of 90% or above (nearly complete death))

From US20120029187A1, “HALOALKYLSULFONANILIDE DERIVATIVE” (Nissan Chemical Industries, Ltd., priority 2009, published 2012)
